Data from patent US6528494B2 (priority 1996, dated 2003).
Where a name gives a salt, the structure may show the parent alone.

What was measured:
Format in all cases: cell-based
adenosine 1 receptor = biological target: T1, adenosine 1 receptor (Homo sapiens, UniProt P30542); experiment: Agonist activity against adenosine 1 receptor (CHO cells, forskolin-enhanced cAMP/SPAP reporter); conditions: CHO cells transfected with human receptor; forskolin-enhanced cAMP via SPAP; mean of all the versions tested
T1 sequence (P30542 1-326): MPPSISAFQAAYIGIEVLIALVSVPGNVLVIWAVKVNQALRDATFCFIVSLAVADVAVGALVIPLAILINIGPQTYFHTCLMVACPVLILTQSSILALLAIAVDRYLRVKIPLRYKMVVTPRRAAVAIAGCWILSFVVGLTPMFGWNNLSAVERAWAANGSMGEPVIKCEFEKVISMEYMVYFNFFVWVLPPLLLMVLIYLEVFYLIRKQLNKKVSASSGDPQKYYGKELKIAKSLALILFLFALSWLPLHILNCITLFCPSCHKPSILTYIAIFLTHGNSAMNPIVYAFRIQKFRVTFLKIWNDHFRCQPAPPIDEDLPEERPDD
Protocol: (§1) (1) Agonist activity against adenosine 2a, adenosine 1 and adenosine 3 receptor subtypes.
(§2) The effect of test compounds was determined by their effects on basal levels of cAMP (A2a) or on forskolin-enhanced cAMP (A1 and A3) as reflected by changes in levels of SPAP.

adenosine 3 receptor = biological target: T2, adenosine 3 receptor (Homo sapiens, UniProt P0DMS8); experiment: Agonist activity against adenosine 3 receptor (CHO cells, forskolin-enhanced cAMP/SPAP reporter); conditions: CHO cells transfected with human receptor; forskolin-enhanced cAMP via SPAP; mean of all the versions tested
T2 sequence (P0DMS8 1-318): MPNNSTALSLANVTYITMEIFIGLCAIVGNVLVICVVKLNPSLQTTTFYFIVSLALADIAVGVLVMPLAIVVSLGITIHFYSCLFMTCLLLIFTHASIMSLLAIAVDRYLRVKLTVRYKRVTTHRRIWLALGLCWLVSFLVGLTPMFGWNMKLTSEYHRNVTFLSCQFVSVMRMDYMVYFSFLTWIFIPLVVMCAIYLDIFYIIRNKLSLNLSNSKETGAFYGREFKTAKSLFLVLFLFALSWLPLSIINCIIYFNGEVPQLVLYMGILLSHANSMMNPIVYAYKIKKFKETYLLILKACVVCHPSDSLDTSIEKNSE
Protocol: as §1, §2

adenosine 2a receptor = adenosine 2a receptor (Homo sapiens, UniProt P29274); experiment: Agonist activity against adenosine 2a receptor (CHO cells, cAMP/SPAP reporter); conditions: CHO cells transfected with human receptor; basal cAMP via SPAP; mean of all the versions tested
adenosine 2a receptor, sequence (P29274 whole entry): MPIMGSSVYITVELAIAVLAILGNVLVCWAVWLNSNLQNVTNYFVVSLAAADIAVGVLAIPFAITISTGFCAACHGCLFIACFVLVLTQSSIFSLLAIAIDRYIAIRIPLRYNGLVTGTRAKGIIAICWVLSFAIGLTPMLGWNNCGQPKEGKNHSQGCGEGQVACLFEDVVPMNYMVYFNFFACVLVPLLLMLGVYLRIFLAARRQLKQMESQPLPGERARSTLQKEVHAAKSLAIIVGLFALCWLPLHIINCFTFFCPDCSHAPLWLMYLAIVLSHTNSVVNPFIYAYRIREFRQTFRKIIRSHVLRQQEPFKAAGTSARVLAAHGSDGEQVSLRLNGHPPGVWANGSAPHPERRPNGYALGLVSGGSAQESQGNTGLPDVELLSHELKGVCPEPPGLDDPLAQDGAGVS
Protocol: as §1, §2

| Molecule | A1 EC50 as a ratio of that of NECA (adenosine 1 receptor) | A3 EC50 as a ratio of that of NECA (adenosine 3 receptor) | A2a EC50 as a ratio of that of NECA (adenosine 2a receptor) |
| --- | --- | --- | --- |
| CCC(CC)Nc1nc(NCCc2ccccn2)nc2c1ncn2C1OC(c2nnn(C)n2)C(O)C1O.O=CO.O=CO [Example 89, (2R,3R,4S,5R)-2-[6-(1-Ethyl-propylamino)-2-(2-pyridin-2-yl-ethylamino)-purin-9-yl]-5-(2-methyl-2H-tetrazol-5-yl)-tetrahydro-furan-3,4-diol Diformate] | >9363.00 | >243 | 2.22 |
| CC(=O)O.CCn1nnc([C@H]2O[C@@H](n3cnc4c(NCCC(C)(C)C)nc(NCCc5cn(C)cn5)nc43)[C@H](O)[C@@H]2O)n1 [Example 9, (2R,3R,4S,5R)-2-{6-(3,3-Dimethyl-butylamino)-2-[2-(1-methyl-1H-imidazol-4-yl)-ethylamino]-purin-9-yl}-5-(2-ethyl-2H-tetrazol-5-yl)-tetrahydro-furan-3,4-diol Acetate] | 377 | >42 | 0.45 |
| CCn1nnc(C2OC(n3cnc4c(NC5CCCC5)nc(NC5CCC(N)CC5)nc43)C(O)C2O)n1.O=CO.O=CO [Example 101, (2R,3R,4S,5R)-2-[2-(trans-4-Amino-cyclohexylamino)-6-cyclopentylamino-purin-9-yl]-5-(2-ethyl-2H-tetrazol-5-yl)-tetrahydro-furan-3,4-diol bis(Formate)] | 39.00 | >195 | 1.51 |
| CC(C)n1nnc(C2OC(n3cnc4c(NC(CO)Cc5ccccc5)nc(NCCc5cn(C)cn5)nc43)C(O)C2O)n1 [Example 40, (2R,3R,4S,5R)-2-{6-(1S-Hydroxymethyl-2-phenyl-ethylamino)-2-[2-(1-methyl-1H-imidazol-4-yl)-ethylamino]-purin-9-yl}-5-(2-isopropyl-2H-tetrazol-5-yl)-tetrahydro-furan-3,4-diol Formate] | 22.1 | >232 | 0.31 |
| Cn1nnc([C@H]2O[C@@H](n3cnc4c(NCC(c5ccccc5)c5ccccc5)nc(N[C@@H]5CCC[C@H]5O)nc43)[C@H](O)[C@@H]2O)n1.O=CO [Example 96, (2R,3R,4S,5R)-2-[6-(2,2-Diphenyl-ethylamino)-2-(2R-hydroxy-(R)-cyclopentylamino)-purin-9-yl]-5-(2-methyl-2H-tetrazol-5-yl)-tetrahydro-furan-3,4-diol Formate] | 5177.00 | >153 | 2.14 |
| (2R,3R,4S,5R)-2-[2-(trans-4-Amino-cyclohexylamino)-6-cyclopentylamino-purin-9-yl]-5-(2-methyl-2H-tetrazol-5-yl)-tetrahydro-furan-3,4-diol Diformate [Example 92] | 253.70 | >192 | 1.24 |
| CCn1nnc([C@H]2O[C@@H](n3cnc4c(NCc5cccc(I)c5)nc(NCCN5CCOCC5)nc43)[C@H](O)[C@@H]2O)n1 [Example 48, (2R,3S,4R,5R)-2-(2-Ethyl-2H-tetrazol-5-yl)-5-[6-(3-iodo-benzylamino)-2-(2-morpholin-4-yl-ethylamino)-purin-9-yl]-tetrahydro-furan-3,4-diol] | 102.00 | >181 | 4.12 |
| CCn1nnc(C2OC(n3cnc4c(NCc5cccc(I)c5)nc(NC5CCNC5)nc43)C(O)C2O)n1 [Example 76, (2R,3S,4R,5R)-2-(2-Ethyl-2H-tetrazol-5-yl)-5-[6-(3-iodo-benzylamino)-2-(pyrrolidin-3S-ylamino)-purin-9-yl]-tetrahydro-furan-3,4-diol bis(Formate)] | 215.30 | >155 | 2.93 |
| CCC(CC)Nc1nc(NCCN2CCCCC2)nc2c1ncn2C1OC(c2nnn(C(C)C)n2)C(O)C1O.O=CO.O=CO [Example 68, (2R,3R,4S,5R)-2-[6-(1-Ethyl-propylamino)-2-(2-piperidin-1-yl-ethylamino)-purin-9-yl]-5-(2-isopropyl-2H-tetrazol-5-yl)-tetrahydro-furan-3,4-diol bis(Formate)] | 56.20 | >331 | 3.50 |
| CCn1nnc(C2OC(n3cnc4c(NCCc5ccccc5)nc(NC5CCNC5)nc43)C(O)C2O)n1 [Example 74, (2R,3S,4R,5R)-2-(2-Ethyl-2H-tetrazol-5-yl)-5-[6-phenethylamino-2-(pyrrolidin-3R-ylamino)-purin-9-yl]-tetrahydro-furan-3,4-diol bis(Formate)] | 201.70 | >171 | 2.79 |
| CC(C)n1nnc(C2OC(n3cnc4c(NC5CCCC5)nc(NCCN5CCCC5)nc43)C(O)C2O)n1.O=CO.O=CO [Example 81, (2R,3R,4S,5R)-2-[6-Cyclopentylamino-2-(2-pyrrolidin-1-yl-ethylamino)-purin-9-yl]-5-(2-isopropyl-2H-tetrazol-5-yl)-tetrahydro-furan-3,4-diol Diformate] | 89.11 | >156 | 4.77 |
| Cn1nnc(C2OC(n3cnc4c(NCC(c5ccccc5)c5ccccc5)nc(NC(CO)Cc5ccccc5)nc43)C(O)C2O)n1 [Example 95, (2R,3R,4S,5R)-2-[6-(2,2-Diphenyl-ethylamino)-2-(1S-hydroxymethyl-2-phenyl-ethylamino)-purin-9-yl]-5-(2-methyl-2H-tetrazol-5-yl)-tetrahydro-furan-3,4-diol Formate] | 4687.00 | >153 | 2.10 |
| CCn1nnc([C@H]2O[C@@H](n3cnc4c(NCC(c5ccccc5)c5ccccc5)nc(NC5CCOCC5)nc43)[C@H](O)[C@@H]2O)n1.O=C(O)C(F)(F)F [Example 113, (2R, 3R,4S, 5R)-2-[6-(2,2-Diphenyl-ethylamino)-2-(tetrahydro-pyran-4-ylamino)-purin-9-yl]-5-(2-ethyl-2H-tetrazol-5-yl)-tetrahydro-furan-3,4-diol Trifluoroacetate] | 184.4 | >297.0 | 0.72 |
| Cn1nnc(C2OC(n3cnc4c(NC(CO)Cc5ccccc5)nc(NCCN5CCCCC5)nc43)C(O)C2O)n1 [Example 107, (2R,3R,4S,5R)-2-[6-(1S-Hydroxymethyl-2-phenyl-ethylamino)-2-(2-piperidin-1-yl-ethylamino)-purin-9-yl]-5-(2-methyl-2H-tetrazol-5-yl)-tetrahydro-furan-3,4-diol bis(Formate)] | 89.10 | >233 | 1.27 |
| CCn1nnc([C@H]2O[C@@H](n3cnc4c(NCC(c5ccccc5)c5ccccc5)nc(NC5CCS(=O)(=O)CC5)nc43)[C@H](O)[C@@H]2O)n1.O=C(O)C(F)(F)F [Example 115, (2R,3R,4S,5R)-2-[6-(2,2-Diphenyl-ethylamino)-2-(1,1--dioxo-hexahydro-1.lamda.6-thiopyran-4-ylamino)-purin-9-yl]-5-(2-ethyl-2H-tetrazol-5-yl)-tetrahydro-furan-3,4-diol Trifluoroacetate] | 37.7 | >297.0 | 0.36 |
| CCn1nnc([C@H]2O[C@@H](n3cnc4c(N)nc(NCCc5ccc(OC)cc5)nc43)[C@H](O)[C@@H]2O)n1.O=CO [Example 18, (2R,3R,4S,5R)-2-{6-Amino-2-[2-(4-methoxy-phenyl)-ethylamino]-purin-9-yl}-5-(2-ethyl-2H-tetrazol-5-yl)-tetrahydro-furan-3,4-diol Formate] | 136.7 | >223 | 0.36 |
| CCn1nnc([C@H]2O[C@@H](n3cnc4c(NCc5cccc(I)c5)nc(NCCc5cn(C)cn5)nc43)[C@H](O)[C@@H]2O)n1 [Example 3, (2R,3S,4R,5R)-2-(2-Ethyl-2H-tetrazol-5-yl)-5-{6-(3-iodo-benzylamino)-2-[2-(1-methyl-1H-imidazol-4-yl)-ethylamino]-purin-9-yl}-tetrahydro-furan-3,4-diol] | 230.8 | >116 | 0.84 |
| Cn1nnc(C2OC(n3cnc4c(NC5CCCC5)nc(NCCN5CCCCC5)nc43)C(O)C2O)n1.O=CO.O=CO [Example 25, (2R,3R,4S,5R)-2-[6-Cyclopentylamino-2-(2-piperidin-1-yl-ethylamino)-purin-9-yl]-5-(2-methyl-2H-tetrazol-5-yl)-tetrahydro-furan-3,4-diol Diformate] | 211.8 | >388 | 0.56 |
